The values below come from patent publication US20250340552A1, “COMPOUNDS, COMPOSITIONS AND METHODS OF TREATING DISORDERS” (HOTSPOT THERAPEUTICS, INC., priority 2022, published 2025).

Like-named read-outs stand apart in the source and are kept apart here.

For this test, the target named is T1, Cbl-B (Homo sapiens, UniProt Q13191).
T1 construct: MSD-Based Assay for Degradation of Cbl-B in THP-1 Cells; endogenous in cells; host or cells: THP-1 (title) / Jurkat (protocol text)
Kind of test: MSD-based assay for degradation of Cbl-B in THP-1 cells. It counts as cell-based. The method, then:
MSD-Based Assay for Degradation of Cbl-B in THP-1 Cells
Assay plates were then shaken at 600 rpm for 5 minutes, followed by incubation for 24 hours in the 37° C. TC incubator. […] Cell debris was then spun down at maximum speed (about 3200 g) for 30 min and lysates frozen in the −80° C. fridge. Meanwhile, MSD plates (L15XA-3) were coated overnight at 4° C. with 1 ug/mL capture antibody (Anti-Cbl-B antibody, 246C5a and Mouse mAB, ab54362). […] Blocking buffer was 3% Blocker A (MSD, R93BA-4) in TBST. Plates were washed 3× with 150 ul/well of 1×TBST and sample lysates (70 ul/well) then added, followed by shaking for 1 hr at RT, 600 rpm. […] Plates were again washed 3× with 150 ul/well of 1×TBST, followed by addition of Secondary Detection antibody, SULFO-TAG anti-species antibody (Anti Rabbit Antibody (R32AB-5) MSD, R32AB-1) at a final concentration of 1 ug/ml and 25 uL/well, followed by shaking for 1 hr at RT, 600 rpm. Plates were again washed 3× with 150 ul/well of 1×TBST, followed by addition of 1×MSD reading buffer (MSD, R92TC-2), 150 ul/well, diluted from 4× with water.
Compound Dmax were binned into A through D as follows: A indicates >70%, B indicates 50-70%, C indicates 30-50%, D indicates <30%.

Setting [1] is: Cbl-B degradation, Jurkat cells seeded (heading: THP-1 cells), 24 hours incubation, MSD readout.
[2] abbreviates: Cbl-B degradation, Jurkat cells seeded (heading: THP-1 cells), 24 hours incubation, MSD readout, read-out: Dmax.

T1 sequence (Q13191 whole entry): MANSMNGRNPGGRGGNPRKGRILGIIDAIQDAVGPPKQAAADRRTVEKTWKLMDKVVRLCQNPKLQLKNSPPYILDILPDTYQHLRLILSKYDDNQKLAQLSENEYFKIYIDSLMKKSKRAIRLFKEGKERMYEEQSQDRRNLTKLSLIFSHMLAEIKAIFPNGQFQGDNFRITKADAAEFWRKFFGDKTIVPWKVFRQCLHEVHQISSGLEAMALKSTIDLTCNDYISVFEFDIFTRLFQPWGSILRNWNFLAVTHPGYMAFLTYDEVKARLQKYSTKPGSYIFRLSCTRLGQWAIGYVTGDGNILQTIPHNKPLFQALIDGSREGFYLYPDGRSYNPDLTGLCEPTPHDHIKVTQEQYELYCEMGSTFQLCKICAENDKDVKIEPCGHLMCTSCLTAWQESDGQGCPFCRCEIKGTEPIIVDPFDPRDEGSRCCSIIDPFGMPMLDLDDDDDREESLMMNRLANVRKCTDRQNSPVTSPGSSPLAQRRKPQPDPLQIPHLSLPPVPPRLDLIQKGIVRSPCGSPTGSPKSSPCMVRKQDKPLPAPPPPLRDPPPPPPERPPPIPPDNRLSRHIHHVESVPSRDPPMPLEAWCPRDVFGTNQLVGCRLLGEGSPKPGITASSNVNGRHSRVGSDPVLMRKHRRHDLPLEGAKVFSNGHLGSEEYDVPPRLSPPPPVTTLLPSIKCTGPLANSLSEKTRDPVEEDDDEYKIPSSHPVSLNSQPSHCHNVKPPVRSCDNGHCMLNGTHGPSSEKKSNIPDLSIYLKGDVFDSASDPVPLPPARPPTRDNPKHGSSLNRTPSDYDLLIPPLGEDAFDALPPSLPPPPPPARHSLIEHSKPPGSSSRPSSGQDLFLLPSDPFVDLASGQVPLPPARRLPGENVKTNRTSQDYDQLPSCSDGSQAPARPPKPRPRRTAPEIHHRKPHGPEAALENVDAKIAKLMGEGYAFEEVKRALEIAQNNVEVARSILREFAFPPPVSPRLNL

For orientation: DC50 means the concentration at which degradation of the target reaches its halfway point. Higher therefore signals a less potent degrader. The term Dmax denotes the largest share of the target that was removed. Take `CN(CCCN1CCN(Cc2cc(C(F)(F)F)c3cn(-c4cccc([C@H](c5nncn5C)C5CCC5)c4)c(=O)n3c2)CC1)C(=O)c1ccc(N2CCN(c3ccc4c(c3)CN([C@H]3CCC(=O)NC3=O)C4=O)CC2)cc1` (single isomer, unassigned) [Compound 124]: the DC50 under setting [1] is < 30 nM. Moreover, the maximal degradation (Dmax) under setting [2] was > 70%. The compound `Cn1cnnc1[C@@H](c1cccc(-n2cc3c(C(F)(F)F)cc(CN4CCN(CCc5ccc(N6CCN(c7ccc8c(c7)CN([C@@H]7CCC(=O)NC7=O)C8=O)CC6)cc5)CC4)cn3c2=O)c1)C1CCC1` (single isomer, unassigned) [Compound 125] registered a DC50 under setting [1] of 30 to 300 nM. Besides, under setting [2], the greatest degradation seen (Dmax) lay within 50 to 70%. The matching figures for `Cn1cnnc1[C@@H](c1cccc(-n2cc3c(C(F)(F)F)cc(CN4CCN(CCc5ccc(N6CCN(c7ccc8c(c7)CN([C@H]7CCC(=O)NC7=O)C8=O)CC6)cc5)CC4)cn3c2=O)c1)C1CCC1` (single isomer, unassigned) [Compound 126]: < 30 nM and > 70%.

In the case of `Cn1cnnc1[C@@H](c1cccc(-n2cc3c(C(F)(F)F)cc(CN4CCC[C@H](OCCc5ccc(CN6CCN(c7ccc8c(c7)CN([C@@H]7CCC(=O)NC7=O)C8=O)CC6)cc5)C4)cn3c2=O)c1)C1CCC1` (single isomer, unassigned) [Compound 127], the DC50 under setting [1] is > 10000 nM. The Dmax under setting [2] is < 30%.

`Cn1cnnc1[C@@H](c1cccc(-n2cc3c(C(F)(F)F)cc(CN4CCC[C@H](OCCc5ccc(CN6CCN(c7ccc8c(c7)CN([C@H]7CCC(=O)NC7=O)C8=O)CC6)cc5)C4)cn3c2=O)c1)C1CCC1` (single isomer, unassigned) [Compound 128]: the DC50 under setting [1] is < 30 nM. Moreover, the Dmax under setting [2] fell in the range of 50 to 70%.

As for `Cn1cnnc1[C@@H](c1cccc(-n2cc3c(C(F)(F)F)cc(CN4CCN(C(=O)CN5CCC(CN6CCN(c7ccc8c(c7)CN([C@H]7CCC(=O)NC7=O)C8=O)CC6)CC5)CC4)cn3c2=O)c1)C1CCC1` (single isomer, unassigned) [Compound 130], the DC50 under setting [1] was in the range of 30 to 300 nM. For the same compound, the Dmax under setting [2] lay within 50 to 70%. The matching figures for `Cn1cnnc1CC1(c2cccc(-n3cc4c(C(F)(F)F)cc(CN5CCN(C(=O)CN6CCC(CN7CCN(c8ccc9c(c8)CN([C@@H]8CCC(=O)NC8=O)C9=O)CC7)CC6)CC5)cn4c3=O)c2)COC1` (single isomer, unassigned) [Compound 131]: > 10000 nM and 30 to 50%. In the case of `Cn1cnnc1CC1(c2cccc(-n3cc4c(C(F)(F)F)cc(CN5CCN(C(=O)CN6CCC(CN7CCN(c8ccc9c(c8)CN([C@H]8CCC(=O)NC8=O)C9=O)CC7)CC6)CC5)cn4c3=O)c2)COC1` (single isomer, unassigned) [Compound 132], the 50% degradation concentration (DC50) under setting [1] was < 30 nM. For the same compound, the maximal degradation (Dmax) under setting [2] lay within 50 to 70%. As for `Cn1cnnc1CC1(c2cccc(-n3cc4c(C(F)(F)F)cc(CN5CCN(CC(=O)N6CCC(CN7CCN(c8ccc9c(c8)CN([C@@H]8CCC(=O)NC8=O)C9=O)CC7)CC6)CC5)cn4c3=O)c2)COC1` (single isomer, unassigned) [Compound 133], under setting [1], the DC50 lay within 30 to 300 nM. In addition, the Dmax under setting [2] was > 70%. The matching figures for `Cn1cnnc1CC1(c2cccc(-n3cc4c(C(F)(F)F)cc(CN5CCN(CC(=O)N6CCC(CN7CCN(c8ccc9c(c8)CN([C@H]8CCC(=O)NC8=O)C9=O)CC7)CC6)CC5)cn4c3=O)c2)COC1` (single isomer, unassigned) [Compound 134]: < 30 nM and > 70%. On to `CN(CCN(C)C(=O)c1ccc(N2CCN(c3ccc4c(c3)CN([C@@H]3CCC(=O)NC3=O)C4=O)CC2)cc1)Cc1cc(C(F)(F)F)c2cn(-c3cccc([C@H](c4nncn4C)C4CCC4)c3)c(=O)n2c1` (single isomer, unassigned) [Compound 139], for which the DC50 under setting [1] lay within 300 to 1000 nM. On the same count and under the same terms, then `CN(CCN(C)C(=O)c1ccc(N2CCN(c3ccc4c(c3)CN([C@H]3CCC(=O)NC3=O)C4=O)CC2)cc1)Cc1cc(C(F)(F)F)c2cn(-c3cccc([C@H](c4nncn4C)C4CCC4)c3)c(=O)n2c1` (single isomer, unassigned) [Compound 140], with 30 to 300 nM. On to `CN(CCN(C)C(=O)c1cc(C(F)(F)F)c2cn(-c3cccc([C@H](c4nncn4C)C4CCC4)c3)c(=O)n2c1)C(=O)c1ccc(N2CCN(c3ccc4c(c3)CN([C@@H]3CCC(=O)NC3=O)C4=O)CC2)cc1` (single isomer, unassigned) [Compound 141], for which the DC50 under setting [1] is > 10000 nM. Under setting [2], the maximal degradation (Dmax) was < 30%. The corresponding values for `CN(CCN(C)C(=O)c1cc(C(F)(F)F)c2cn(-c3cccc([C@H](c4nncn4C)C4CCC4)c3)c(=O)n2c1)C(=O)c1ccc(N2CCN(c3ccc4c(c3)CN([C@H]3CCC(=O)NC3=O)C4=O)CC2)cc1` (single isomer, unassigned) [Compound 142] are > 10000 nM and 30 to 50%.

Take `Cn1cnnc1[C@@H](c1cccc(-n2cc3c(C(F)(F)F)cc(CN4CCC[C@@H](OCCc5ccc(CN6CCN(c7ccc8c(c7)CN([C@@H]7CCC(=O)NC7=O)C8=O)CC6)cc5)C4)cn3c2=O)c1)C1CCC1` (single isomer, unassigned) [Compound 143]: the 50% degradation concentration (DC50) under setting [1] was 300 to 1000 nM. Also, the Dmax under setting [2] fell in the range of 30 to 50%.

On to `Cn1cnnc1[C@@H](c1cccc(-n2cc3c(C(F)(F)F)cc(CN4CCC[C@@H](OCCc5ccc(CN6CCN(c7ccc8c(c7)CN([C@H]7CCC(=O)NC7=O)C8=O)CC6)cc5)C4)cn3c2=O)c1)C1CCC1` (single isomer, unassigned) [Compound 144], for which, under setting [1], the DC50 is < 30 nM. The greatest degradation seen (Dmax) under setting [2] lay within 50 to 70%.

In the case of `CN(CCOC1CCN(Cc2cc(C(F)(F)F)c3cn(-c4cccc([C@H](c5nncn5C)C5CCC5)c4)c(=O)n3c2)CC1)C(=O)c1ccc(N2C3CC2CN(c2ccc4c(c2)CN([C@@H]2CCC(=O)NC2=O)C4=O)C3)cc1` (single isomer, unassigned) [Compound 145], under setting [1], the DC50 was > 10000 nM. The Dmax (THP-1) was in the range of 30 to 50%. With `CN(CCOC1CCN(Cc2cc(C(F)(F)F)c3cn(-c4cccc([C@H](c5nncn5C)C5CCC5)c4)c(=O)n3c2)CC1)C(=O)c1ccc(N2C3CC2CN(c2ccc4c(c2)CN([C@H]2CCC(=O)NC2=O)C4=O)C3)cc1` (single isomer, unassigned) [Compound 146], the DC50 under setting [1] was > 10000 nM. Also, the maximal degradation (Dmax) under setting [2] is < 30%.

`CN(CCOCc1cc(C(F)(F)F)c2cn(-c3cccc([C@H](c4nncn4C)C4CCC4)c3)c(=O)n2c1)C(=O)c1ccc(N2CCN(c3ccc4c(c3)CN([C@@H]3CCC(=O)NC3=O)C4=O)CC2)cc1` (single isomer, unassigned) [Compound 147]: under setting [1], the DC50 is > 10000 nM. Further, under setting [2], the Dmax is < 30%. The matching figures for `CN(CCOCc1cc(C(F)(F)F)c2cn(-c3cccc([C@H](c4nncn4C)C4CCC4)c3)c(=O)n2c1)C(=O)c1ccc(N2CCN(c3ccc4c(c3)CN([C@H]3CCC(=O)NC3=O)C4=O)CC2)cc1` (single isomer, unassigned) [Compound 148]: 30 to 300 nM and 30 to 50%. The matching figures for `Cn1cnnc1[C@@H](c1cccc(-n2cc3c(C(F)(F)F)cc(CN4CCC(OCc5cccc(C(=O)N6CCN(c7ccc8c(c7)CN([C@@H]7CCC(=O)NC7=O)C8=O)CC6)c5)CC4)cn3c2=O)c1)C1CCC1` (single isomer, unassigned) [Compound 153]: > 10000 nM and < 30%.
